Test results published in US20240408170A1, “COMPOSITION FOR DECOMPOSITION OF TRYPSIN OR TMPRSS2” (Riken, priority 2021, published 2024).

Key:
[1] = molecular target: T1, recombinant mouse PRSS2 (Mus musculus, UniProt P07146); assay: Trypsin decomposition in vitro by bacteria (western blot); assay type: biochemical; details: for trypsin-decomposing ability of P. clara (1C4) after pretreating rmPRSS2 with protease inhibitor: rmPRSS2 pretreated 30 minutes with inhibitor; for decomposition of rmPRSS2 (western blot): bacteria or culture supernatant incubated with recombinant mouse trypsin
T1 construct: purchased Sino Biological, Inc. 50383-M08H
T1 sequence (P07146 24-246): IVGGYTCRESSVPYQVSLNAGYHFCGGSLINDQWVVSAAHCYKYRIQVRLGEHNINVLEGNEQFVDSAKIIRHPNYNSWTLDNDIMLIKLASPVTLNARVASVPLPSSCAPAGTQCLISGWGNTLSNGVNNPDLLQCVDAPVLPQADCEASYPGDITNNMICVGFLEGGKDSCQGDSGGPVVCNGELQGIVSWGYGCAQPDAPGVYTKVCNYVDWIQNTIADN
Experimental: Mouse faecal samples were suspended and diluted 50-fold with phosphate buffered saline (PBS) to which a protease inhibitor cocktail (Roche) was added. Subsequently, the suspended sample was centrifuged at 15,000×g for 10 minutes at 4° C., and the supernatant was subjected to western blot. Mouse pancreatic tissue was rapidly frozen in liquid nitrogen. Proteins were extracted by TRIzol Reagent (Thermo Fisher Scientific K.K.), and the final protein concentration was adjusted to 4 μg/μL. For SDS-PAGE and blotting, Novex (registered trademark) NuPAGE (registered trademark) SDS-PAGE Gel system (Thermo Fisher Scientific K.K.) and iBlot™ 2 Dry Blotting System (Thermo Fisher Scientific K.K.) were used according to the manufacturer's instructions.
The bacteria cultured overnight were incubated with recombinant mouse trypsin (final concentration: 1 μg/mL) for 1 hour or with human trypsin (final concentration: 20 μg/mL) for 4 hours. Recombinant trypsin isoforms used were as follows: recombinant mouse PRSS2 (50383-M08H, Sino Biological, Inc.), recombinant human PRSS1 (LS-G135640), recombinant human PRSS2 (LS-G20167), and recombinant human PRSS3 (His-tag) (NBP2-52220).
In some experiments, recombinant mouse PRSS2 was first treated with one of the following trypsin inhibitors for 30 minutes before incubation with a P. clara culture solution. AEBSF (Sigma-Aldrich, final concentration: 2 mM), Leupeptin (Sigma-Aldrich, final concentration: 100 μM), and TLCK (Abcam plc., final concentration: 100 μM).
In some experiments, P. clara was cultured overnight in the presence of Tunicamycin (Sigma-Aldrich, final concentration: 10 μg/mL), 2-Fluoro-L-fucose (Cayman Chemical Company, final concentration: 250 μM), or the corresponding DMSO control, before incubation with recombinant mouse PRSS2.
In the experiment of evaluating the effect of Ca^2+, P. clara was cultured in a low Ca^2+ mGAM medium supplemented with or without 1 mM of Ca^2+, before incubation with recombinant mouse PRSS2. In the experiment in which the supernatant of P. clara was used, P. clara cultured overnight was filtered through a sterilization filter unit formed using a PVDF film having a pore size of 0.22 μm.

[2] = system: trypsin; assay: Faecal trypsin activity of GF mice colonized by human microbiota, isolated strain mixtures or P. clara strains; assay type: in vivo, mouse; details: GF+C#5 mice, antibiotic via drinking
Experimental: Mouse intestinal contents or a mice faecal sample was diluted 500-fold (w/v) with a 0.9% NaCl solution. Human faeces were diluted 200-fold (w/v) with a 0.9% NaCl solution. The diluted solution was vortexed in a mini shaker for 20 minutes at 2,000 rpm, homogenized by pipetting, and then centrifuged at 10,000×g for 15 minutes at 4° C. Subsequently, the supernatant was recovered to measure the trypsin activity by a Trypsin Activity Assay Kit (Colorimetric) for 100 tests (ab102531) according to the manufacturer's protocol. The absorbance at 405 nm was measured in a kinetic mode by using a PerkinElmer 2030 Multilabel Reader.
Human faecal samples were collected at RIKEN and Keio University according to a research protocol approved by the Research Ethics Review Committee. Informed consent was obtained from each subject. A human faecal sample (preserved in 20% (v/v) glycerol) was transferred to an anaerobic chamber, thawed, and then sieved with a 100 μm mesh, transferred to a GF isolator, and orally administered to GF mice by 200 μL/mouse.
For an antibiotic treatment, each solution of 0.5 g/L ampicillin (Nacalai Tesque, Inc.), 0.5 g/L metronidazole (Nacalai Tesque, Inc.), and 1.0 g/L tylosin (Sigma-Aldrich) was produced with autoclaved tap water. The antibiotic solution was given, for 12 days, to mice to which the faecal contents derived from a donor C were orally administered. The antibiotic solution was changed once a week.
The isolated strains except for Phasolactobacterium faecium (3G4) were cultured in an anaerobic chamber at a temperature of 37° C. for 1 to 2 days. Phasolactobacterium faecium was cultured for 2 to 3 days in an Oxoid CM0619 agar plate to which 80 mM sodium succinate was added. The colonies were recovered and resuspended in EGEF. The bacterial density was adjusted based on an OD600 value, and the mixture of the cultured strains was orally administered to GF mice (150 μL/mouse, total bacterial count: about 1 to 2×10^8 CFU).

[3] = system: IgA heavy chain; assay: Ex vivo incubation of mouse faeces at 37° C. for 48 hours, western blot; details: GF faeces mixed with 2-mix+WT faeces, trypsin inhibitor added
Experimental: Mouse faecal samples were suspended and diluted 50-fold with phosphate buffered saline (PBS) to which a protease inhibitor cocktail (Roche) was added. Subsequently, the suspended sample was centrifuged at 15,000×g for 10 minutes at 4° C., and the supernatant was subjected to western blot. Mouse pancreatic tissue was rapidly frozen in liquid nitrogen. Proteins were extracted by TRIzol Reagent (Thermo Fisher Scientific K.K.), and the final protein concentration was adjusted to 4 μg/μL. For SDS-PAGE and blotting, Novex (registered trademark) NuPAGE (registered trademark) SDS-PAGE Gel system (Thermo Fisher Scientific K.K.) and iBlotTM 2 Dry Blotting System (Thermo Fisher Scientific K.K.) were used according to the manufacturer's instructions. The antibodies used are as follows. A rabbit anti-mouse PRSS2 antibody (Cosmo Bio Co., Ltd.), a rabbit anti-mouse HSP90 antibody (#4877, Cell Signaling Technology, Inc.), a rabbit anti-human PRSS2 antibody (LS-B15726, LSBio), a rabbit anti-human PRSS1 antibody (LS-331381, LSBio), a rabbit anti-mouse TMPRSS2 antibody (LS-C373022, LSBio, against the sequence of the protease domain), a rabbit anti-6-His antibody ([…]-[…], Bethyl Laboratories, Inc.), a goat anti-mouse IgA a chain antibody (HRP) (ab97235, Abcam plc.), a rat anti-mouse κ chain antibody (HRP) (ab99632, Abcam plc.), a rabbit anti-mouse CELA3b antibody (OACD03205, Aviva Systems Biology Corporation), an anti-rabbit IgG antibody (HRP) (#7074, Cell Signaling Technology, Inc.), and a rabbit anti-mouse Reg3 antibody (51153-[…], Sino Biological, Inc.).

[4] = molecular target: T1, recombinant mouse PRSS2; assay: Binding of Alexa Fluor 488-labeled rmPRSS2 to the surface of bacteria (confocal microscope)
Experimental: Recombinant mouse PRSS2 was labeled with Alexa Fluor™ 488 using an Alexa Fluor™ 488 Antibody Labeling Kit (Δ20181, Thermo Fisher Scientific K.K.), and was pretreated with an AEBSF inhibitor (150 μg/mL rmPRSS2 with 20 mM AEBSF).
Mouse PRSS2 labeled with Alexa Fluor™ 488 was incubated in an anaerobic chamber for 20 minutes with bacteria cultured at a final concentration of 5 μg/mL. The mixture was centrifuged, washed once with PBS, and then resuspended in PBS. A Leica TCS SP8 confocal microscope was used for capturing a confocal image.

In the case of `NCCc1ccc(S(=O)(=O)F)cc1` [AEBSF, reference compound], the “trypsin-decomposing ability of P. clara (1C4) after pretreating rmPRSS2 with protease inhibitor” value [1] is reported as “lost”.
In the case of `CC1(C)S[C@@H]2[C@H](NC(=O)[C@H](N)c3ccccc3)C(=O)N2[C@H]1C(=O)O` [Amp, Ampicillin], the faecal trypsin activity [2] is reported as “more decreased”.
With `Cc1ncc([N+](=O)[O-])n1CCO` [MNZ, metronidazole] the faecal trypsin activity [2] was “no decrease”.
In the case of `Cc1ccc(S(=O)(=O)N[C@@H](CCCCN)C(=O)CCl)cc1` [TLCK, reference compound], the “trypsin-decomposing ability of P. clara (1C4) after pretreating rmPRSS2 with protease inhibitor” value [1] is reported as “lost” and the “decomposition of IgA heavy chain in mixed faeces” value [3] is reported as “inhibited the decomposition of the IgA heavy chain”.
For `CC[C@H]1OC(=O)C[C@@H](O)[C@H](C)[C@@H](O[C@@H]2O[C@H](C)[C@@H](O[C@H]3C[C@@](C)(O)[C@@H](O)[C@H](C)O3)[C@H](N(C)C)[C@H]2O)[C@@H](CC=O)C[C@@H](C)C(=O)/C=C/C(C)=C/[C@@H]1CO[C@@H]1O[C@H](C)[C@@H](O)[C@@H](OC)[C@H]1OC` [Tyl, tylosin], the faecal trypsin activity [2] was “no decrease”.
For `CC(=O)N[C@@H](CC(C)C)C(=O)N[C@@H](CC(C)C)C(=O)N[C@H](C=O)CCCNC(=N)N` [leupeptin, reference compound], the “trypsin-decomposing ability of P. clara (1C4) after pretreating rmPRSS2 with protease inhibitor” value [1] was “lost”.
Paraprevotella clara [P237E3b] was tested, and the “decomposition of rmPRSS2 (western blot)” value [1] was “effect of reducing trypsin”.
Paraprevotella clara [P322B5] was tested, and the “decomposition of rmPRSS2 (western blot)” value [1] was “effect of reducing trypsin”.
With “Paraprevotella xylaniphila [P. xylaniphila (JCM 14860) strain]” the “decomposition of rmPRSS2 (western blot)” value [1] was “potent trypsin-reducing ability”.
With Prevotella copri [reference compound] the “decomposition of rmPRSS2 (western blot)” value [1] was “did not decrease the trypsin activity”.
In the case of “Prevotella denticola [reference compound]”, the “decomposition of rmPRSS2 (western blot)” value [1] is reported as “did not decrease the trypsin activity” and the “binding of rmPRSS2 to the surface of bacteria” value [4] is reported as “no accumulation of trypsin was observed”.
With “Prevotella muris [Prevotella muris strain]” the “decomposition of rmPRSS2 (western blot)” value [1] was “had a trypsin-decomposing activity”.
For Prevotella oulorum [reference compound], the “decomposition of rmPRSS2 (western blot)” value [1] was “did not decrease the trypsin activity” and the “binding of rmPRSS2 to the surface of bacteria” value [4] was “no accumulation of trypsin was observed”.
With “Prevotella rara [Prevotella rara (MSP 0081) strain]” the “decomposition of rmPRSS2 (western blot)” value [1] was “had a trypsin-decomposing activity”.
“Prevotella rodentium [Prevotella rodentium strain]” was tested, and the “decomposition of rmPRSS2 (western blot)” value [1] was “had a trypsin-decomposing activity”.
For “Prevotella stercorea [reference compound]”, the “decomposition of rmPRSS2 (western blot)” value [1] was “did not decrease the trypsin activity”.
With tunicamycin [reference compound] the “decomposition of rmPRSS2 by P. clara pretreated with sugar chain synthesis inhibitor” value ([1]; P. clara cultured overnight with inhibitor) was “no decomposition of trypsin was observed” and the “binding of rmPRSS2 to the surface of P. clara treated with sugar chain synthesis inhibitor” value [4] was “no accumulation of trypsin on the surface”.
